These results are taken from US9630961B2, “Arginine methyltransferase inhibitors and uses thereof” (Epizyme, Inc., priority 2013, dated 2017).

In this assay the test system is mono-methyl arginine in RKO cells. The experiment in a line: RKO Methylation Assay, In Cell Western for mono-methyl arginine and DNA content. It is filed as cell-based. To be noted: Homo sapiens, 72 hours, percent activation of mono-methyl arginine signal. The text has this:
RKO Methylation Assay RKO adherent cells were purchased from ATCC (American Type Culture Collection), Manassas, Va., USA. DMEM/Glutamax medium, penicillin-streptomycin, heat inactivated fetal bovine serum, 0.05% trypsin and D-PBS were purchased from Life Technologies, Grand Island, N.Y., USA. Odyssey blocking buffer, 800CW goat anti-rabbit IgG (H+L) antibody, and Licor Odyssey infrared scanner were purchased from Licor Biosciences, Lincoln, Nebr., USA. Mono-methyl arginine antibody was purchased from Cell Signaling Technology, Danvers, Mass., USA. Methanol was purchased from VWR, Franklin, Mass., USA. 10% Tween 20 was purchased from KPL, Inc., Gaithersburg, Md., USA. DRAQ5 was purchased from Biostatus Limited, Leicestershire, UK. RKO adherent cells were maintained in growth medium (DMEM/Glutamax medium supplemented with 10% v/v heat inactivated fetal bovine serum and 100 units/mL penicillin-streptomycin) and cultured at 37° C. under 5% CO2. Cell Treatment, in Cell Western (ICW) for Detection of Mono-Methyl Arginine and DNA Content. RKO cells were seeded in assay medium at a concentration of 20,000 cells per mL to a poly-D-lysine coated 384 well culture plate (BD Biosciences 356697) with 50 μL per well. Compound (100 nL) from a 96-well source plate was added directly to 384 well cell plate. Plates were incubated at 37° C., 5% CO2 for 72 hours. After three days of incubation, plates were brought to room temperature outside of the incubator for ten minutes and blotted on paper towels to remove cell media. 50 μL of ice cold 100% methanol was added directly to each well and incubated for 30 min at room temperature. After 30 min, plates were transferred to a Biotek EL406 plate washer and washed 2 times with 100 μL per well of wash buffer (IX PBS). Next 60 μL per well of Odyssey blocking buffer (Odyssey Buffer with 0.1% Tween 20 (v/v)) were added to each plate and incubated 1 hour at room temperature. Blocking buffer was removed and 20 μL per well of primary antibody was added (mono-methyl arginine diluted 1:200 in Odyssey buffer with 0.1% Tween 20 (v/v)) and plates were incubated overnight (16 hours) at 4° C. Plates were washed 5 times with 100 μL per well of wash buffer. Next 20 μL per well of secondary antibody was added (1:200 800CW goat anti-rabbit IgG (H+L) antibody, 1:1000 DRAQ5 (Biostatus limited) in Odyssey buffer with 0.1% Tween 20 (v/v)) and incubated for 1 hour at room temperature. The plates were washed 5 times with 100 μL per well wash buffer then 2 times with 100 μL per well of water. Plates were allowed to dry at room temperature then imaged on the Licor Odyssey machine which measures integrated intensity at 700 nm and 800 nm wavelengths. Both 700 and 800 channels were scanned. Calculations: First, the ratio for each well was determined by: Each plate included fourteen control wells of DMSO only treatment (minimum activation) as well as fourteen control wells for maximum activation treated with 20 μM of a reference compound. The average of the ratio values for each control type was calculated and used to determine the percent activation for each test well in the plate. Reference compound was serially diluted three-fold in DMSO for a total of nine test concentrations, beginning at 20 μM. Percent activation was determined and EC30 curves were generated using triplicate wells per concentration of compound.

As for `CN(CCN)Cc1c[nH]nc1-c1cncnc1` [Compound 4], the EC30 – broadly, the concentration needed for an effect of 30% – is no less than 12 µM.

Compound `CN(CCN)Cc1c[nH]nc1-c1cnn(C)c1` [Compound 8] yielded a concentration for an effect of 30% (EC30) of no less than 12 µM.

`CN(CCN)Cc1c[nH]nc1-c1ccc2scnc2c1` [Compound 9] registered an EC30 of 3.01 to 12 µM.

Compound `CN(CCN)Cc1c[nH]nc1-c1cn[nH]c1` [Compound 12] showed an EC30 of no less than 12 µM.

Consider `CN(CCN)Cc1c[nH]nc1-c1cnc2[nH]ccc2c1` [Compound 13], for which the EC30 was 3.01 to 12 µM.

`CN(CCN)Cc1c[nH]nc1-c1cc[nH]n1` [Compound 14] returned an EC30 of no less than 12 µM.

As for `CN(CCN)Cc1c[nH]nc1-c1ccnn1C` [Compound 15], the EC30 was no less than 12 µM.

In the case of `CCn1cc(-c2n[nH]cc2CN(C)CCN)cn1` [Compound 16], the EC30 was no less than 12 µM.

`CN(CCN)Cc1c[nH]nc1-c1cnn(-c2ccccc2)c1` [Compound 17] yielded an EC30 of no more than 3 µM.

`CN(CCN)Cc1c[nH]nc1-c1cnn(CCO)c1` [Compound 18] returned an EC30 of no less than 12 µM.

For the compound `CN(CCN)Cc1c[nH]nc1-c1ccc2cnn(C)c2c1` [Compound 19, N^1-methyl-N^1-((3-(1-methyl-1H-indazol-6-yl)-1H-pyrazol-4-yl)methyl)ethane-1,2-diamine], the EC30 fell in the range of 3.01 to 12 µM.

For the compound `CN(CCN)Cc1c[nH]nc1-c1ccc2ncnn2c1` [Compound 20], the EC30 was no less than 12 µM.

Turning to `CN(CCN)Cc1c[nH]nc1-c1ccc2nccn2c1` [Compound 21, N^1-((3-(imidazo[1,2-a]pyridin-6-yl)-1H-pyrazol-4-yl)methyl)-N^1-methylethane-1,2-diamine], the EC30 fell in the range of 3.01 to 12 µM.

In the case of `CC(C)n1cc(-c2n[nH]cc2CN(C)CCN)cn1` [Compound 22], the EC30 is 3.01 to 12 µM.

For the compound `CC(C)Cn1cc(-c2n[nH]cc2CN(C)CCN)cn1` [Compound 23, N^1-((2′-isobutyl-3,4′-bi(1H-pyrazol)-4-yl)methyl)-N^1-methylethane-1,2-diamine], the EC30 was no more than 3 µM.

Take `CN(CCN)Cc1c[nH]nc1-c1cnn(Cc2ccccc2)c1` [Compound 24, N^1-((1′-benzyl-3,4′-bi(1H-pyrazol)-4-yl)methyl)-N^1-methylethane-1,2-diamine]: the 30% effect concentration (EC30) was no more than 3 µM.

In the case of `Cc1n[nH]c(C)c1-c1n[nH]cc1CN(C)CCN` [Compound 25], the EC30 is no less than 12 µM.

For `CN(CCN)Cc1c[nH]nc1-c1ccc2[nH]ncc2c1` [Compound 27, N^1-((3-(1H-indazol-5-yl)-1H-pyrazol-4-yl)methyl)-N^1-methylethane-1,2-diamine], the EC30 was no more than 3 µM.

`CN(CCN)Cc1c[nH]nc1-c1cnc(C2CC2)nc1` [Compound 28]: the EC30 is no less than 12 µM.
